Earlier results as cited in PMC5526139 (Xenobiotica; the Fate of Foreign Compounds in Biological …, 2016).

Parameters: method as in Zhang et al., 2011
Details: ref Zhang et al., 2011

CC(O)Cn1c(=O)c(Oc2ccc(F)cc2F)cc2cnc(NC(C)CO)nc21 (centres unmarked) [6-(2,4-difluorophenoxy)-2-[(1-hydroxypropan-2-yl)amino]-8-(2-hydroxypropyl)-7H,8H-pyrido[2,3-d]pyrimidin-7-one]
half-life in Phase 1 clinical trial (man): 0.7 h
predicted half-life in man (prediction before the clinical trial): 6 h
